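Protocol summary: plate cells (96-well), add compound at 5 concentrations, incubate 48 h, interpolate endpoints linearly. Abbreviation: GI50, concentration required for 50% inhibition of growth. TGI denotes the concentration required for complete inhibition of growth.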
Experiments:
Experiment in all cases: NCI anticancer screen, dose series, 48 h
[1] = test system: SK-MEL-2 melanoma
[2] = test system: 786-0 renal
[3] = test system: COLO 205 colon
[4] = test system: SK-MEL-28 melanoma
[5] = test system: SK-OV-3 ovarian
[6] = test system: MDA-MB-435
[7] = test system: HL-60(TB) leukemia
[8] = test system: MCF7 breast
[9] = test system: T-47D breast
[10] = test system: OVCAR-8 ovarian
[11] = test system: KM12 colon
[12] = test system: SNB-75 CNS
[13] = test system: CCRF-CEM leukemia
[14] = test system: UACC-62 melanoma
[15] = test system: HOP-92 NSCLC
[16] = test system: IGROV1 ovarian
[17] = test system: HOP-62 NSCLC
[18] = test system: SF-268 CNS
[19] = test system: OVCAR-3 ovarian
[20] = test system: SNB-19 CNS
[21] = test system: NCI-H460 lung
[22] = test system: K-562 leukemia
[23] = test system: SF-295 CNS
[24] = test system: ACHN renal
[25] = test system: A498 renal
[26] = test system: UO-31 renal
[27] = test system: HCC-2998 colon
[28] = test system: SK-MEL-5 melanoma
[29] = test system: NCI-H23 lung
[30] = test system: LOX IMVI melanoma
[31] = test system: SN12C renal
[32] = test system: OVCAR-5 ovarian
[33] = test system: CAKI-1 renal
[34] = test system: MALME-3M melanoma
[35] = test system: HCT-116 colon
[36] = test system: PC-3 prostate
[37] = test system: RPMI-8226 leukemia
[38] = test system: DU-145 prostate
[39] = test system: MDA-MB-231 breast
[40] = test system: NCI-H522 lung
[41] = test system: HS 578T breast
[42] = test system: M14 melanoma
[43] = test system: TK-10 renal
[44] = test system: MOLT-4 leukemia
[45] = test system: BT-549 breast
[46] = test system: RXF 393 renal
[47] = test system: HCT-15 colon
[48] = test system: U251 CNS
[49] = test system: SR leukemia
[50] = test system: NCI/ADR-RES ovarian
[51] = test system: UACC-257 melanoma
[52] = test system: HT29 colon
[53] = test system: SW-620 colon
[54] = test system: SF-539 CNS
[55] = test system: A549 NSCLC
[56] = test system: OVCAR-4 ovarian

Cc1cccc(-n2cnc3cc(C(=O)N4CCCCC4)ccc32)c1 was tested, and the GI50 [1] was > 100 µM, the TGI [1] was > 100 µM and the GI50 [2] was > 100 µM. For the same molecule, the TGI [2] was > 100 µM, the GI50 [3] was 49.9 µM and the TGI [3] was > 100 µM. The GI50 [4] was 59.1 µM, the TGI [4] was > 100 µM and the GI50 [5] was > 100 µM. The TGI [5] was > 100 µM, the GI50 [6] was > 100 µM and the TGI [6] was > 100 µM. For the same molecule, the GI50 [7] was > 100 µM, the TGI [7] was > 100 µM and the GI50 [8] was 48.4 µM. For the same molecule, the TGI [8] was > 100 µM, the GI50 [9] was 28 µM and the TGI [9] was 93.1 µM. For the same molecule, the GI50 [10] was 91.9 µM, the TGI [10] was > 100 µM and the GI50 [11] was > 100 µM. The TGI [11] was > 100 µM, the GI50 [12] was 30 µM and the TGI [12] was > 100 µM. The GI50 [13] was > 100 µM, the TGI [13] was > 100 µM and the GI50 [14] was 48 µM. For the same molecule, the TGI [14] was > 100 µM, the GI50 [15] was 41.4 µM and the TGI [15] was > 100 µM. For the same molecule, the GI50 [16] was > 100 µM, the TGI [16] was > 100 µM and the GI50 [17] was > 100 µM. For the same molecule, the TGI [17] was > 100 µM, the GI50 [18] was > 100 µM and the TGI [18] was > 100 µM. For the same molecule, the GI50 [19] was 54.9 µM, the TGI [19] was > 100 µM and the GI50 [20] was 48.8 µM. The TGI [20] was > 100 µM, the GI50 [21] was > 100 µM and the TGI [21] was > 100 µM. For the same molecule, the GI50 [22] was 59.9 µM, the TGI [22] was > 100 µM and the GI50 [23] was 65.1 µM. The TGI [23] was > 100 µM, the GI50 [24] was > 100 µM and the TGI [24] was > 100 µM. The GI50 [25] was 51.3 µM, the TGI [25] was > 100 µM and the GI50 [26] was 29.8 µM. The TGI [26] was > 100 µM, the GI50 [27] was > 100 µM and the TGI [27] was > 100 µM. For the same molecule, the GI50 [28] was 20 µM, the TGI [28] was 53.1 µM and the GI50 [29] was > 100 µM. The TGI [29] was > 100 µM, the GI50 [30] was > 100 µM and the TGI [30] was > 100 µM. For the same molecule, the GI50 [31] was > 100 µM, the TGI [31] was > 100 µM and the GI50 [32] was > 100 µM. For the same molecule, the TGI [32] was > 100 µM, the GI50 [33] was > 100 µM and the TGI [33] was > 100 µM. The GI50 [34] was > 100 µM, the TGI [34] was > 100 µM and the GI50 [35] was > 100 µM. The TGI [35] was > 100 µM, the GI50 [36] was > 100 µM and the TGI [36] was > 100 µM. For the same molecule, the GI50 [37] was > 100 µM, the TGI [37] was > 100 µM and the GI50 [38] was > 100 µM. For the same molecule, the TGI [38] was > 100 µM, the GI50 [39] was 92.2 µM and the TGI [39] was > 100 µM. The GI50 [40] was > 100 µM, the TGI [40] was > 100 µM and the GI50 [41] was 72.7 µM. For the same molecule, the TGI [41] was > 100 µM, the GI50 [42] was > 100 µM and the TGI [42] was > 100 µM. For the same molecule, the GI50 [43] was > 100 µM, the TGI [43] was > 100 µM and the GI50 [44] was > 100 µM. For the same molecule, the TGI [44] was > 100 µM, the GI50 [45] was 97 µM and the TGI [45] was > 100 µM. For the same molecule, the GI50 [46] was 23.9 µM, the TGI [46] was > 100 µM and the GI50 [47] was 56.6 µM. For the same molecule, the TGI [47] was > 100 µM, the GI50 [48] was 62.6 µM and the TGI [48] was > 100 µM. The GI50 [49] was > 100 µM, the TGI [49] was > 100 µM and the GI50 [50] was 37.9 µM. The TGI [50] was > 100 µM, the GI50 [51] was > 100 µM and the TGI [51] was > 100 µM. The GI50 [52] was > 100 µM, the TGI [52] was > 100 µM and the GI50 [53] was > 100 µM. For the same molecule, the TGI [53] was > 100 µM, the GI50 [54] was 85.5 µM and the TGI [54] was > 100 µM. The GI50 [55] was 85.5 µM, the TGI [55] was > 100 µM and the GI50 [56] was 46 µM. For the same molecule, the TGI [56] was > 100 µM.

— PubChem BioAssay (NCI)
